# Columns and labels:
# Assay type in all cases: biochemical
# [1] = biological target: T1, PRMT4 (Homo sapiens, UniProt Q86X55); experiment: HotSpot radioisotope-based filter assay, PRMT4
# T1 construct: PRMT4 (residues 2–608, C-terminus); with an N-terminal GST-tag; GST (N); purchased Reaction Biology Corporation
# T1 sequence (Q86X55 2-608): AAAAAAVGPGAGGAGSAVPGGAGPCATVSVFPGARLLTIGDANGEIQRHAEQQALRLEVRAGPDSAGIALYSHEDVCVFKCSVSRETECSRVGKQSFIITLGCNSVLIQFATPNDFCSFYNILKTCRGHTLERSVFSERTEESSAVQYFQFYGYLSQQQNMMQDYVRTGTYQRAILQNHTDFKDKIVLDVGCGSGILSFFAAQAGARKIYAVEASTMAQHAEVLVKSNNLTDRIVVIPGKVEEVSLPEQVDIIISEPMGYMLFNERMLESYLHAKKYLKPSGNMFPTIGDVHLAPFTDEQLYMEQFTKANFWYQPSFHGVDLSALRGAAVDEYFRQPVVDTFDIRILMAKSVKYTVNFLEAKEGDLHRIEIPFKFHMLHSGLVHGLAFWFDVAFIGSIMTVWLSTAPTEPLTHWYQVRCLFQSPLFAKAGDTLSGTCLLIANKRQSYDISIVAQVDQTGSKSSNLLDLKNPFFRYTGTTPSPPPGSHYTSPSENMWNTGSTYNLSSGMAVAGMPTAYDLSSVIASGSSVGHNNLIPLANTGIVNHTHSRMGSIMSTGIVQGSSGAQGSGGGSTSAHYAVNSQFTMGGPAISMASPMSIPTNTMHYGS
# Description: (§1) Then, ^3H-SAM (final concentration of 1 μM) was delivered into the reaction mixture to initiate the reaction. After incubation for 60 min at 30 °C, the reaction mixture was delivered to filter-paper for detection (as assessed by scintillation). Data were analyzed using Excel and GraphPad Prism 6.0 software (GraphPad Software Inc., San Diego, CA) for IC50 curve fits using sigmoidal dose vs response - variable slope (four parameters) equations.
# [2] = biological target: T2, PRMT3 (Homo sapiens, UniProt O60678); experiment: HotSpot radioisotope-based filter assay, PRMT3
# T2 construct: PRMT3 (residues 2–531, C-terminus); with an N-terminal His-tag; His (N); purchased Reaction Biology Corporation
# T2 sequence (O60678 2-531): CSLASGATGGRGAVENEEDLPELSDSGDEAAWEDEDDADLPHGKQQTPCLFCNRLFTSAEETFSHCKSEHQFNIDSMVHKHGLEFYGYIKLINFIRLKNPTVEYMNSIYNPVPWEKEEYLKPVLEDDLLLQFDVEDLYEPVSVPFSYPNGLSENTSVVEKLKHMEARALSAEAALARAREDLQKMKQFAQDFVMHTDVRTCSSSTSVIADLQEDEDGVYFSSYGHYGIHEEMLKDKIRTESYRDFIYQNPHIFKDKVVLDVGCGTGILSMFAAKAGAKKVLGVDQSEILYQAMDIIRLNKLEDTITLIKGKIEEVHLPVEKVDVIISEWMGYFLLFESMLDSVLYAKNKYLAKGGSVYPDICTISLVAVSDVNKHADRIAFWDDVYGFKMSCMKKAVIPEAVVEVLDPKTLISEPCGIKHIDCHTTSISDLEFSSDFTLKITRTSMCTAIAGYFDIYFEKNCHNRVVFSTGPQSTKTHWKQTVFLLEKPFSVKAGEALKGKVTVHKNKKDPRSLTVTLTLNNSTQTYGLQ
# Description: as §1
# [3] = biological target: T3, PRMT7 (Homo sapiens, UniProt Q9NVM4); experiment: HotSpot radioisotope-based filter assay, PRMT7; details: 5 μM GST-GAR, 3H-SAM 1 μM
# T3 construct: PRMT7 (residues 2–692, C-terminus); with an N-terminal His-tag; His (N); purchased Reaction Biology Corporation
# T3 sequence (Q9NVM4 2-692): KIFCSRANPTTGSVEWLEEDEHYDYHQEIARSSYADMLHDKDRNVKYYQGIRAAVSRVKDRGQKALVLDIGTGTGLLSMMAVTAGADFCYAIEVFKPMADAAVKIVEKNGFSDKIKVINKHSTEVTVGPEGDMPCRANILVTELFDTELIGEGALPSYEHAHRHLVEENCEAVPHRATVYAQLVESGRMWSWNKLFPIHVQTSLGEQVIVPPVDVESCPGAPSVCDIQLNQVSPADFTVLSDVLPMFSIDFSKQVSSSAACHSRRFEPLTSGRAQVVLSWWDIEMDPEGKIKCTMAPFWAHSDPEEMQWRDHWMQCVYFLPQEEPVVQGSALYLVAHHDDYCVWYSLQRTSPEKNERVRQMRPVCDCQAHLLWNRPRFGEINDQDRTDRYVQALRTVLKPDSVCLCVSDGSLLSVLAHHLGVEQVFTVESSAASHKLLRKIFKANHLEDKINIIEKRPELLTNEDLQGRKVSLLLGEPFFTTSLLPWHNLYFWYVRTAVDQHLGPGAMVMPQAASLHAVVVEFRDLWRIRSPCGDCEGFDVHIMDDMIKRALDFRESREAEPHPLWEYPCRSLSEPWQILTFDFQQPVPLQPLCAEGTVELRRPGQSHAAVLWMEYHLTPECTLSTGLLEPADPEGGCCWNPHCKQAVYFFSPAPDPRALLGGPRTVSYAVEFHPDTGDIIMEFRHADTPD
# Description: as §1
# [4] = biological target: T4, DOT1L/KMT4 (Homo sapiens, UniProt Q8TEK3); experiment: HotSpot KMT activity assay, DOT1L
# T4 construct: the human recombinant DOT1L (residues 1–416); N-terminal GST-tag; GST (N); purchased Reaction Biology Corporation
# T4 sequence (Q8TEK3 1-416): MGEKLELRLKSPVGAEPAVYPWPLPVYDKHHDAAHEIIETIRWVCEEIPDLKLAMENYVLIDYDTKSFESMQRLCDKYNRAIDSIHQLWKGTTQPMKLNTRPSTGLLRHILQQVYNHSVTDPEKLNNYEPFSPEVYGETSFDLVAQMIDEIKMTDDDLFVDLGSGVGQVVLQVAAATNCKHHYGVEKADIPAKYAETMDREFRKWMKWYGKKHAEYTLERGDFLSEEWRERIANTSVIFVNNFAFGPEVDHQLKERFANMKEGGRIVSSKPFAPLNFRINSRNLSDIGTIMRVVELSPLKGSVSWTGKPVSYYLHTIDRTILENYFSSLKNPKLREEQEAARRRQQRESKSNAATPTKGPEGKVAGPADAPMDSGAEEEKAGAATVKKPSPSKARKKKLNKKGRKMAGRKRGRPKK
# Description: Then, ^3H-SAM (final concentration 1 μM) was delivered into the reaction mixture to initiate the reaction. After incubation for 60 min at 30 °C, the reaction mixture was delivered to filter paper for detection (as assessed by scintillation). […] No inhibitor control (DMSO) was considered as showing 100% enzyme activity. Data were analyzed using Excel and GraphPad Prism 6.0 software (GraphPad Software Inc., San Diego, CA). Values obtained for each compound are mean ± SD determined for two separate experiments.
# [5] = Figure 2, from IC50 values of ref 31
Compound,"selectivity index for PRMT7 over PRMT4 [1, 5] [fold]","selectivity index for PRMT7 over PRMT3 [2, 5] [fold]",IC50 [3] [µM],inhibition of DOT1L/KMT4 (in words) ([4]; 10 μM),"remaining activity at 10 µM ([4]; 10 μM, read-out: % DOT1L residual activity) [%]","remaining activity at 100 µM ([4]; 100 μM, read-out: % DOT1L residual activity) [%]","IC50 ([1]; 5 μM histone H3, 3H-SAM 1 μM) [µM]","IC50 ([2]; 5 μM histone H4, 3H-SAM 1 μM) [µM]"
COC(=O)c1cc(O)c2cc(NC(=O)NCCCCCNC(=N)NC[C@H]3O[C@@H](n4cnc5c(N)ncnc54)[C@H](O)[C@@H]3O)ccc2c1 [1c],2,97,,,,,,
"COC(=O)c1cc(O)c2cc(NC(=O)NCCCNC(=N)NC[C@H]3O[C@@H](n4cnc5c(N)ncnc54)[C@H](O)[C@@H]3O)cc(C(F)(F)F)c2c1 [1j, Methyl 6-(3-(3-(3-(((2R,3S,4R,5R)-5-(6-Amino-9H-purin-9-yl)-3,4-dihydroxytetrahydrofuran-2-yl)methyl)guanidino)propyl)ureido)-4-hydroxy-8-(trifluoromethyl)-2-naphthoate]",,,5.6,significantly inhibited,11.2 ± 0.88,1.35 ± 0.17,1.46,14.9

# — article PMC10578352, “Identification of a Protein Arginine Methyltransferase 7 (PRMT7)/Protein Arginine Methyltransferase 9 (PRMT9) Inhibitor” (Journal of Medicinal Chemistry, 2023)
